Test results: PMC10817917, “Alkyl deoxyglycoside-polymyxin combinations against critical priority carbapenem-resistant gram-negative bacteria” (Scientific Reports, 2024)
“And” between values parts separate entries of the source, which are not always exact repeats. Identical values can stand only once. Like-named read-outs stand apart in the source and are kept apart here.

Columns and labels:
E. coli NCTC 13846 = experiment: Broth microdilution MIC/MBC, glycosides with or without polymyxins; format: cell-based, Escherichia coli; conditions: strain B
P. aeruginosa CQ4924 = experiment: Broth microdilution MIC, glycosides with or without polymyxins; format: cell-based, Pseudomonas aeruginosa; conditions: for MIC: Pseudomonas aeruginosa, CQ4924
K. pneumoniae CQ1942 = experiment: as above; format: cell-based, Klebsiella pneumoniae; conditions: for MIC: Klebsiella pneumoniae, CQ1942
A. baumannii CQ4322 = experiment: Broth microdilution MIC/MBC, glycosides with or without polymyxins; format: cell-based, Acinetobacter baumannii; conditions: for MIC: Acinetobacter baumannii, CQ4322
[1] = alone, read-out: MICA (MIC of each compound individually)
[2] = combination with the lowest FICI
[3] = compound + colistin, lowest FICI

In the case of `CCCCCCCCCCCC[C@H]1O[C@H](C)C[C@H](O)[C@H]1O` [Compound 5, 1-(4,6-dideoxy-α-D-xylo-hexopyranosyl)dodecane], the “MIC of colistin in combination with the compound” value (“MIC … with the compound” for short) (E. coli NCTC 13846; Cpd conc. 0.4 μg/mL) is reported as greater than 0.5 µg/mL, the “MIC … with the compound” value (E. coli NCTC 13846; Cpd conc. 0.8 μg/mL) is reported as greater than 0.5 µg/mL and the “MIC … with the compound” value (E. coli NCTC 13846; Cpd conc. 3.125 μg/mL) is reported as greater than 0.5 µg/mL. The “MIC … with the compound” value (E. coli NCTC 13846; Cpd conc. 6.25 μg/mL) was greater than 0.5 µg/mL, the “MIC … with the compound” value (E. coli NCTC 13846; Cpd conc. 12.5 μg/mL) was greater than 0.5 µg/mL and the “MIC … with the compound” value (E. coli NCTC 13846; Cpd conc. […]) was greater than 0.5 µg/mL. The MIC (E. coli NCTC 13846; Escherichia coli, NCTC13846, agent alone, no adjuvant (polymyxin conc. 0), read-out: MIC) was greater than 100 µg/mL, the “MIC of compound in combination with PMB” value (E. coli NCTC 13846; PMB 0.25 μg/mL) was greater than 100 µg/mL and the “MIC of compound in combination with PMB” value (E. coli NCTC 13846; PMB 0.5 μg/mL) was greater than 100 µg/mL. The “MIC of compound in combination with colistin” value (E. coli NCTC 13846; colistin 0.06 μg/mL) was greater than 100 µg/mL, the “MBC of compound in combination with colistin” value (E. coli NCTC 13846; colistin 0.125 μg/mL) was > 100|> 100 μg/mL and the “MIC of compound in combination with colistin” value (E. coli NCTC 13846; colistin 0.125 μg/mL) was > 100|> 100 μg/mL. For the same compound, the “MIC of compound in combination with colistin” value (E. coli NCTC 13846; colistin 0.25 μg/mL) was greater than 100 µg/mL, the “MIC of compound in combination with colistin” value (E. coli NCTC 13846; colistin 0.5 μg/mL) was greater than 100 µg/mL and the “MIC … with the compound” value (P. aeruginosa CQ4924; Cpd conc. 0.4 μg/mL, strain H) was greater than 0.5 µg/mL. For the same compound, the “MIC … with the compound” value (P. aeruginosa CQ4924; Cpd conc. 0.8 μg/mL, strain H) was greater than 0.5 µg/mL, the “MIC … with the compound” value (P. aeruginosa CQ4924; Cpd conc. 3.125 μg/mL, strain H) was 0.5 µg/mL and the “MIC … with the compound” value (P. aeruginosa CQ4924; Cpd conc. 6.25 μg/mL, strain H) was 0.5 µg/mL. For the same compound, the “MIC … with the compound” value (P. aeruginosa CQ4924; Cpd conc. 12.5 μg/mL, strain H) was 0.5 µg/mL, the “MIC … with the compound” value (P. aeruginosa CQ4924; Cpd conc. […], strain H) was greater than 0.5 µg/mL and the “MIC of compound in combination with PMB” value (P. aeruginosa CQ4924; PMB 0.25 μg/mL, strain H) was greater than 100 µg/mL. For the same compound, the “MIC of compound in combination with PMB” value (P. aeruginosa CQ4924; PMB 0.5 μg/mL, strain H) was 6.3 µg/mL, the MIC (P. aeruginosa CQ4924; agent alone, no adjuvant (polymyxin conc. 0), strain H, read-out: MIC) was greater than 100 µg/mL and the MIC (P. aeruginosa CQ4924; [1]) was greater than 100 µg/mL. For the same compound, the “MIC of compound in combination with colistin” value (P. aeruginosa CQ4924; colistin 0.06 μg/mL, strain H) was greater than 100 µg/mL, the “MIC of compound in combination with colistin” value (P. aeruginosa CQ4924; colistin 0.125 μg/mL, strain H) was greater than 100 µg/mL and the “MIC of compound in combination with colistin” value (P. aeruginosa CQ4924; colistin 0.25 μg/mL, strain H) was greater than 100 µg/mL. For the same compound, the “MIC of compound in combination with colistin” value (P. aeruginosa CQ4924; colistin 0.5 μg/mL, strain H) was 3.1 µg/mL, the “MICA(A + B) (MIC of compound in combination with colistin)” value (“MICA(A + B)” below) (P. aeruginosa CQ4924; [2]) was 3.125 mg/L and the “MICB(A + B) (MIC of colistin in combination with compound)” value (“MICB(A + B)” for short) (P. aeruginosa CQ4924; [2]) was 0.5 mg/L. For the same compound, the “Interpretation (of FICI)” value (P. aeruginosa CQ4924; compound + colistin) was “Additive (from 0.5 to 1.0 were additive)”, the FICI (P. aeruginosa CQ4924; [3]) was 0.52 and the “MIC … with the compound” value (K. pneumoniae CQ1942; Cpd conc. 0.4 μg/mL, strain E) was 0.5 µg/mL. For the same compound, the “MIC … with the compound” value (K. pneumoniae CQ1942; Cpd conc. 0.8 μg/mL, strain E) was 0.5 µg/mL, the “MIC … with the compound” value (K. pneumoniae CQ1942; Cpd conc. 3.125 μg/mL, strain E) was 0.25 µg/mL and the “MIC … with the compound” value (K. pneumoniae CQ1942; Cpd conc. 6.25 μg/mL, strain E) was 0.25 µg/mL. The “MIC … with the compound” value (K. pneumoniae CQ1942; Cpd conc. 12.5 μg/mL, strain E) was 0.25 µg/mL, the “MIC … with the compound” value (K. pneumoniae CQ1942; Cpd conc. […], strain E) was 0.5 µg/mL and the MIC (K. pneumoniae CQ1942; agent alone, no adjuvant (polymyxin conc. 0), strain E, read-out: MIC) was greater than 100 µg/mL. For the same compound, the MIC (K. pneumoniae CQ1942; [1]) was greater than 100 µg/mL, the “MIC of compound in combination with PMB” value (K. pneumoniae CQ1942; PMB 0.25 μg/mL, strain E) was greater than 100 µg/mL and the “MIC of compound in combination with PMB” value (K. pneumoniae CQ1942; PMB 0.5 μg/mL, strain E) was 1.6 µg/mL. The “MIC of compound in combination with colistin” value (K. pneumoniae CQ1942; colistin 0.06 μg/mL, strain E) was greater than 100 µg/mL, the “MIC of compound in combination with colistin” value (K. pneumoniae CQ1942; colistin 0.125 μg/mL, strain E) was greater than 100 µg/mL and the “MIC of compound in combination with colistin” value (K. pneumoniae CQ1942; colistin 0.5 μg/mL, strain E) was no more than 0.1 µg/mL. The “MICA(A + B)” value (K. pneumoniae CQ1942; [2]) was 3.125 mg/L, the “MICB(A + B)” value (K. pneumoniae CQ1942; [2]) was 0.25 mg/L and the “Interpretation (of FICI)” value (K. pneumoniae CQ1942; compound + colistin) was “Additive (from 0.5 to 1.0 were additive)”. It also gave an FICI (K. pneumoniae CQ1942; [3]) of 0.52, an MIC (A. baumannii CQ4322; agent alone, no adjuvant (polymyxin conc. 0), strain G, read-out: MIC) greater than 100 µg/mL and an MIC (A. baumannii CQ4322; [1]) greater than 100 µg/mL. The “MIC … with the compound” value (A. baumannii CQ4322; Cpd conc. 0.4 μg/mL, strain G) was greater than 0.5 µg/mL, the “MIC … with the compound” value (A. baumannii CQ4322; Cpd conc. 0.8 μg/mL, strain G) was 0.5 µg/mL and the “MIC … with the compound” value (A. baumannii CQ4322; Cpd conc. 3.125 μg/mL, strain G) was 0.25 µg/mL. For the same compound, the “MIC … with the compound” value (A. baumannii CQ4322; Cpd conc. 6.25 μg/mL, strain G) was 0.25 µg/mL, the “MIC … with the compound” value (A. baumannii CQ4322; Cpd conc. 12.5 μg/mL, strain G) was 0.25 µg/mL and the “MIC … with the compound” value (A. baumannii CQ4322; Cpd conc. […], strain G) was 0.5 µg/mL. The “MIC of compound in combination with PMB” value (A. baumannii CQ4322; PMB 0.25 μg/mL, strain G) was greater than 100 µg/mL, the “MIC of compound in combination with PMB” value (A. baumannii CQ4322; PMB 0.5 μg/mL, strain G) was 3.1 µg/mL and the “MIC of compound in combination with colistin” value (A. baumannii CQ4322; colistin 0.06 μg/mL, strain G) was greater than 100 µg/mL. The “MBC of compound in combination with colistin” value (A. baumannii CQ4322; colistin 0.125 μg/mL, strain G) was 25|25 μg/mL, the “MIC of compound in combination with colistin” value (A. baumannii CQ4322; colistin 0.125 μg/mL, strain G) was 25 μg/mL and 25|25 μg/mL and the “MIC of compound in combination with colistin” value (A. baumannii CQ4322; colistin 0.25 μg/mL, strain G) was 3.1 µg/mL. The “MIC of compound in combination with colistin” value (A. baumannii CQ4322; colistin 0.5 μg/mL, strain G) was 0.8 µg/mL, the “MICA(A + B)” value (A. baumannii CQ4322; [2]) was 25 mg/L and the “MICB(A + B)” value (A. baumannii CQ4322; [2]) was 0.125 mg/L. The FICI (A. baumannii CQ4322; [3]) was 0.38.
